The values below come from US10821115B2, “Compounds that inhibit Mcl-1 protein” (priority 2017, dated 2020).

Experiment [1] addresses recombinant human Mcl-1 (residues 171-327) / Bim interaction (Homo sapiens (Human), UniProt Q07820). Briefly: biochemical. The class given is binding. The following applies: read-out: Mcl-1 HTRF IC50.
Experiment [2] deals with human multiple myeloma cell line, OPM-2. Briefly: Cell viability assay (OPM-2 10 FBS), CellTiter-Glo. Type of experiment: cell-based. An outline of the steps: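 OPM-2 cells at 3000 cells/well in RPMI 1640 with 10% FBS were exposed to serially diluted compounds for 16 h at 37 °C, 5% CO2.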
Where [3] appears, read: TR-FRET, Mcl-1(171-327) / biotin-Bim (51-76).
[4] abbreviates: Homo sapiens, OPM-2, 16 h, read-out: OPM-2 10% FBS IC50 IP, OPM-2 cells, 10% FBS, 16 h, CellTiter-Glo.
Where [5] appears, read: 0.1 nM Mcl-1(171-327), 0.05 nM biotin-Bim (51-76).
Where [6] appears, read: Homo sapiens, OPM-2, 16 h, read-out: OPM-2 10% FBS IC50 IP, OPM-2 cells, 10% FBS, 16 h incubation.
The mark [7] stands for this setting: read-out: OPM-2 10% FBS IC50 IP, OPM-2 cells, 10% FBS, 16 h, CellTiter-Glo.
Setting [8] is: read-out: OPM-2 10% FBS IC50 IP, OPM-2 cells, 10% FBS, 16 h incubation.

Where two headings read alike, the source gives them in different places.

Chain of recombinant human Mcl-1 (residues 171-327) / Bim interaction (Q07820 171-327): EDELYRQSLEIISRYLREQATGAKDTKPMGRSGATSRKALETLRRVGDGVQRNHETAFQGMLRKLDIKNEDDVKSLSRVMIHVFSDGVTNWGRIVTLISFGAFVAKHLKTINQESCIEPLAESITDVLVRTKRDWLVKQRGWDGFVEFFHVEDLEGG

For `C[C@@H]1[C@@H](C)C[C@@H](N(C)C)C[C@](C)(O)[C@@H]2CC[C@H]2CN2C[C@@]3(CCCc4cc(Cl)ccc43)COc3ccc(cc32)C(=O)NS1(=O)=O` [Example 100063, (1S,3′R,6′R,7′S,9′R,11′S,12′R)-6-chloro-9′-(dimethylamino)-7′-hydroxy-7′,11′,12′-trimethyl-3,4-dihydro-2H,15′H-spiro[naphthalene-1,22′-[20]oxa[13]thia[1,14]diazatetracyclo [14.7.2.0~3,6~.0~19,24~]pentacosa[16,18,24]trien]-15′-one 13′,13′-dioxide], the values for the half-maximal inhibitory concentration (IC50) in experiment [1] (setting [3]) and in experiment [2] (setting [4]) were 2.32 nM and 2260 nM, respectively.

Take `CO[C@@]1(CN2CCN(C3COC3)CC2)/C=C/C[C@H](C)[C@@H](C)S(=O)(=O)NC(=O)c2ccc3c(c2)N(C[C@@H]2CC[C@H]21)C[C@@]1(CCCc2cc(Cl)ccc21)CO3` [Example 250, (1S,3′R,6′R,7′S,8′E,11′S,12′R)-6-chloro-7′-methoxy-11′,12′-dimethyl-7′-((4-(3-oxetanyl)-1-piperazinyl)methyl)-3,4-dihydro-2H,15′H-spiro[naphthalene-1,22′-[20]oxa[13]thia[1,14]diazatetracyclo [14.7.2.0~3,6~.0~19,24~]pentacosa[8,16,18,24]tetraen]-15′-one 13′,13′-dioxide]: the IC50 stood at 0.071 nM in experiment [1] (setting [5]) and 47 nM in experiment [2] (setting [6]).

Turning to `C[C@@H]1[C@@H](C)CCC[C@@](O)(CCN2CC(F)(F)C2)[C@@H]2CC[C@H]2CN2C[C@@]3(CCCc4cc(Cl)ccc43)COc3ccc(cc32)C(=O)NS1(=O)=O` [Example 100093, (1S,3′R,6′R,7′R,11′S,12′R)-6-chloro-7′-(2-(3,3-difluoro-1-azetidinyl)ethyl)-7′-hydroxy-11′,12′-dimethyl-3,4-dihydro-2H,15′H-spiro[naphthalene-1,22′-[20]oxa[13]thia[1,14]diazatetracyclo [14.7.2.0~3,6~.0~19,24~]pentacosa[16,18,24]trien]-15′-one 13′,13′-dioxide], the IC50 is 0.291 nM in experiment [1] (setting [3]) and 554 nM in experiment [2] (setting [7]).

In the case of `C[C@@H]1[C@@H](C)CCC[C@](O)(c2ccccn2)[C@@H]2CC[C@H]2CN2C[C@@]3(CCCc4cc(Cl)ccc43)COc3ccc(cc32)C(=O)NS1(=O)=O` [Example 100469, (1S,3′R,6′R,7′R,11′S,12′R)-6-chloro-7′-hydroxy-11′,12′-dimethyl-7′-(2-pyridinyl)-3,4-dihydro-2H,15′H-spiro[naphthalene-1,22′-[20]oxa[13]thia[1,14]diazatetracyclo [14.7.2.0~3,6~.0~19,24~]pentacosa[16,18,24]trien]-15′-one 13′,13′-dioxide], the results for the half-maximal inhibitory concentration (IC50) in experiment [1] (setting [3]) and in experiment [2] (setting [4]) were 0.085 nM and 325 nM, respectively.

For `CO[C@@]1(CN2CCN3CCOC[C@@H]3C2)/C=C/C[C@H](C)[C@@H](Cc2ccccc2)S(=O)(=O)NC(=O)c2ccc3c(c2)N(C[C@@H]2CC[C@H]21)C[C@@]1(CCCc2cc(Cl)ccc21)CO3` (single isomer, unassigned) [Example 102], the IC50 in experiment [1] (setting [5]) was 0.182 nM; in experiment [2] (setting [8]), 416 nM.

`CO[C@]1(CN2CC(C)(C#N)C2)/C=C/C[C@H](C)[C@@H](C)S(=O)(=O)NC(=O)c2ccc3c(c2)N(C[C@@H]2CC[C@H]21)C[C@@]1(CCCc2cc(Cl)ccc21)CO3` [Example 71, 1-(((1S,3′R,6′R,7′R,8′E,11′S, 12′R)-6-chloro-7′-methoxy-11′,12′-dimethyl-13′,13′-dioxido-15′-oxo-3,4-dihydro-2H-spiro[naphthalene-1,22′-[20]oxa[13]thia[1,14]diazatetracyclo [14.7.2.0~3,6~.0~19,24~]pentacosa[8,16,18,24]tetraen]-7′-yl)methyl)-3-methyl-3-azetidinecarbonitrile]: the IC50 in experiment [1] (setting [5]) was 0.371 nM; in experiment [2] (setting [6]), 1140 nM.

With `CCCCN1CCN(C[C@]2(OC)/C=C/C[C@H](C)[C@@H](C)S(=O)(=O)NC(=O)c3ccc4c(c3)N(C[C@@H]3CC[C@H]32)C[C@@]2(CCCc3cc(Cl)ccc32)CO4)CC1` [Example 301, (1S,3′R,6′R,7′S,8′E,11′S,12′R)-7′-((4-butyl-1-piperazinyl)methyl)-6-chloro-7′-methoxy-11′,12′-dimethyl-3,4-dihydro-2H,15′H-spiro[naphthalene-1,22′-[20]oxa[13]thia[1,14]diazatetracyclo [14.7.2.0~3,6~.0~19,24~]pentacosa[8,16,18,24]tetraen]-15′-one 13′,13′-dioxide], the half-maximal inhibitory concentration (IC50) in experiment [1] (setting [5]) was found to be 0.196 nM; in experiment [2] (setting [6]) it was 141 nM.

As to `CO[C@]1(CN2CCN3CCN(S(C)(=O)=O)C[C@@H]3C2)/C=C/C[C@H](C)[C@@H](C)S(=O)(=O)NC(=O)c2ccc3c(c2)N(C[C@@H]2CC[C@H]21)C[C@@]1(CCCc2cc(Cl)ccc21)CO3` (single isomer, unassigned) [Example 238], the IC50 was 0.176 nM in experiment [1] (setting [5]) and 76 nM in experiment [2] (setting [8]).

Regarding `C[C@@H]1[C@@H](C)C/C=C/[C@@](O)(C#CCO)[C@@H]2CC[C@H]2CN2C[C@@]3(CCCc4cc(Cl)ccc43)COc3ccc(cc32)C(=O)NS1(=O)=O` [Example 100394, (1S,3′R,6′R,7′S,8′E,11′S,12′R)-6-chloro-7′-hydroxy-7′-(3-hydroxy-1-propyn-1-yl)-11′,12′-dimethyl-3,4-dihydro-2H,15′H-spiro[naphthalene-1,22′-[20]oxa[13]thia[1,14]diazatetracyclo [14.7.2.0~3,6~.0~19,24~]pentacosa[8,16,18,24]tetraen]-15′-one 13′,13′-dioxide], the results for the half-maximal inhibitory concentration (IC50) in experiment [1] (setting [3]) and in experiment [2] (setting [7]) were 0.242 nM and 622 nM, respectively.

With `C[C@@H]1[C@@H](C)CCC[C@@]2(CCO2)[C@@H]2CC[C@H]2CN2C[C@@]3(CCCc4cc(Cl)ccc43)COc3ccc(cc32)C(=O)NS1(=O)=O` [Example 100228, (1S,3′R,6′R,7′R,11′S,12′R)-6-chloro-11′,12′-dimethyl-3,4-dihydro-2H,15′H-dispiro[naphthalene-1,22′-[20]oxa[13]thia[1,14]diazatetracyclo [14.7.2.0~3,6~.0~19,24~]pentacosa[16,18,24]triene-7′,2″-oxetan]-15′-one 13′,13′-dioxide], the results for the half-inhibitory concentration (IC50) in experiment [1] (setting [3]) and in experiment [2] (setting [4]) were 0.558 nM and 3300 nM, respectively.

Take `CO[C@@]1(CN2CCN3C[C@@H](C)OC[C@@H]3C2)/C=C/C[C@H](C)[C@@H](C)S(=O)(=O)NC(=O)c2ccc3c(c2)N(C[C@@H]2CC[C@H]21)C[C@@]1(CCCc2cc(Cl)ccc21)CO3` [Example 147, (1S,3′R,6′R,7′S,8′E,11′S,12′R)-6-chloro-7′-methoxy-11′,12′-dimethyl-7′-(((3R,9aS)-3-methylhexahydropyrazino[2,1-c][1,4]oxazin-8(1H)-yl)methyl)-3,4-dihydro-2H,15′H-spiro[naphthalene-1,22′-[20]oxa[13]thia[1,14]diazatetracyclo [14.7.2.0~3,6~.0~19,24~]pentacosa[8,16,18,24]tetraen]-15′-one 13′,13′-dioxide]: the results for the half-maximal inhibitory concentration (IC50) in experiment [1] (setting [5]) and in experiment [2] (setting [6]) were 0.376 nM and 157 nM, respectively.

Regarding `C[C@@H]1[C@@H](C)C/C=C/[C@@](O)(C#CCN(C)C)[C@@H]2CC[C@H]2CN2C[C@@]3(CCCc4cc(Cl)ccc43)COc3ccc(cc32)C(=O)NS1(=O)=O` [Example 100294, (1S,3′R,6′R,7′S,8′E,11′S,12′R)-6-chloro-7′-(3-(dimethylamino)-1-propyn-1-yl)-7′-hydroxy-11′,12′-dimethyl-3,4-dihydro-2H,15′H-spiro[naphthalene-1,22′-[20]oxa[13]thia[1,14]diazatetracyclo [14.7.2.0~3,6~.0~19,24~]pentacosa[8,16,18,24]tetraen]-15′-one 13′,13′-dioxide], the results for the concentration for half-maximal inhibition (IC50) in experiment [1] (setting [3]) and in experiment [2] (setting [7]) were 0.118 nM and 116 nM, respectively.

On to `COC[C@]1(OC)CCC[C@H](C)[C@@H](C)S(=O)(=O)NC(=O)c2ccc3c(c2)N(C[C@@H]2CC[C@H]21)C[C@@]1(CCCc2cc(Cl)ccc21)CO3` [Example 100225, (1S,3′R,6′R,7′S,11′S,12′R)-6-chloro-7′-methoxy-7′-(methoxymethyl)-11′,12′-dimethyl-3,4-dihydro-2H,15′H-spiro[naphthalene-1,22′-[20]oxa[13]thia[1,14]diazatetracyclo [14.7.2.0~3,6~.0~19,24~]pentacosa[16,18,24]trien]-15′-one 13′,13′-dioxide], for which the IC50 in experiment [1] (setting [3]) was determined as 0.639 nM; in experiment [2] (setting [7]) it was 882 nM.

`C[C@@H]1[C@@H](C)C/C=C/[C@@](O)(C(F)(F)F)[C@@H]2CC[C@H]2CN2C[C@@]3(CCCc4cc(Cl)ccc43)COc3ccc(cc32)C(=O)NS1(=O)=O` [Example 100045, (1S,3′R,6′R,7′S,8′E,11′S,12′R)-6-chloro-7′-hydroxy-11′,12′-dimethyl-7′-(trifluoromethyl)-3,4-dihydro-2H,15′H-spiro[naphthalene-1,22′-[20]oxa[13]thia[1,14]diazatetracyclo [14.7.2.0~3,6~.0~19,24~]pentacosa[8,16,18,24]tetraen]-15′-one 13′,13′-dioxide]: the 50% inhibitory concentration (IC50) in experiment [1] (setting [3]) worked out at 0.308 nM; in experiment [2] (setting [4]) it was 342 nM.

Consider `CO[C@@]1(CN2CCN3CC[C@H](F)C[C@@H]3C2)/C=C/C[C@H](C)[C@@H](C)S(=O)(=O)NC(=O)c2ccc3c(c2)N(C[C@@H]2CC[C@H]21)C[C@@]1(CCCc2cc(Cl)ccc21)CO3` (single isomer, unassigned) [Example 283], for which the half-maximal inhibitory concentration (IC50) in experiment [1] (setting [5]) amounted to 0.354 nM; in experiment [2] (setting [8]), 839 nM.
